According to US5874436A, “Triphenylalkyl antimicrobial agents” (priority 1997, dated 1999):
Converted amounts (≈) assume the structure as drawn.

What was measured:
[1] = tested on: selected microorganisms; assay: MIC antimicrobial assay (NCCLS microdilution broth method); type: cell-based
Experimental: 2. MIC Anitimicrobial Assay
The in vitro antimicrobial activity of the compounds was determined by the microdilution broth method following the test method from the National Committee for Laboratory Standards (NCCLS). This method is described in the NCCLS Document M7-A2, Vol.10, No.8 "Methods for Dilution Antimicrobial Susceptibility Test for Bacteria that Grow Aerobically--Second Edition."
In this method two-fold serial dilutions of drug in cation supplemented Mueller-Hinton broth are added to wells in microdilution trays. The test organisms are prepared by adjusting the turbidity of actively growing broth cultures so that the final concentration of test organism after it is added to the wells is approximately 5×10^4 CFUs/well).
Following inoculation of the microdilution trays, the trays are incubated at 35° C. for 16-20 hours and then read. […] The amount of growth in the wells containing the test compound is compared with the amount of growth in the growth-control wells (no test compound) used in each tray.

[2] = target: T1, Kinase A and Spo0F (Bacillus subtilis, UniProt P16497); assay: Autophosphorylation of Kinase A and transphosphorylation of Spo0F assay (HPK in vitro assay); type: biochemical; settings: inhibitor concentrations from 1 to 500 μM, [32P]ATP, phosphoimager
T1 construct: made in house; host or cells: E. coli (recombinant, overexpressing)
T1 sequence (P16497 1-606): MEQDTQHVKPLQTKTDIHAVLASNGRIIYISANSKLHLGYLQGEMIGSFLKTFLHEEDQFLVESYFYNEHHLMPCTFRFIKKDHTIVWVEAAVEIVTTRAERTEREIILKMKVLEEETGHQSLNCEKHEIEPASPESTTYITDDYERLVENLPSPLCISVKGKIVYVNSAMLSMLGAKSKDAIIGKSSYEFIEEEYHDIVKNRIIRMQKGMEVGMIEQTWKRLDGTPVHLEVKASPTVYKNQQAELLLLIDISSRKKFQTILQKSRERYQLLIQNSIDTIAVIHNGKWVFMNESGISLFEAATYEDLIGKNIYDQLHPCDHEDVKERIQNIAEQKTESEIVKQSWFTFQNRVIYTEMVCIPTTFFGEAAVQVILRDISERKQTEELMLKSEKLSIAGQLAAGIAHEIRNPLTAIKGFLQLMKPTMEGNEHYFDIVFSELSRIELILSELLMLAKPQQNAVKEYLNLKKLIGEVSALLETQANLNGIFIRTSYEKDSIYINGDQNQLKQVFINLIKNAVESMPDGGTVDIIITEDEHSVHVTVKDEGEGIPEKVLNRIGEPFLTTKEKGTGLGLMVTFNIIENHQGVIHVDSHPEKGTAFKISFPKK
Experimental: 1. Autophosphorylation of Kinase A and Transphosphorylation of Spo0F Assay
To study the effect of the compounds of the present invention on the signal transduction process in bacteria, the inhibiting effect of the compounds on the sporulation operon proteins Kinase A and Spo0F was examined. Specifically, the inhibition of autophosphorylation of Kinase A and the transphosphorylation of Spo0F was determined in the following assays. The Spo0F response regulator is the primary substrate for phosphorylation by the protein kinase, Kin A, involved in the sporulation process in bacteria. See D. Burbulys, K. A. Trach, J. A. Hoch, Cell, 64, 545-552 (1991). Spo0F and KinA were prepared from recombinant E. coli overexpressing the proteins (J. Cavanagh et al, Amino Acids, 6, 131-140 (1994) and references therein).
The following stock reagents were either prepared and used promptly or stored at the indicated temperature:
8 X Salts : 2M KCl (5 mL), 1M MgCl2 (800 mL), 1M CaCl2 (100 mL), 10 mg/mL phenylmethylsulfonyl fluoride (200 mL), 1 M dithioreitol (50 mL), 0.25M Na2 EDTA (32 mL) and H2 O mL (-20° C.)
5×Loading Dye: 0.5M TRIS-HCl-pH 6.8 (7.5 mL), 10% SDS (2 mL) 0.1% bromophenol blue (0.5 mL), 100% glycerol (3 mL) and 12.5 M 2-mercaptoethanol (0.3 mL)
1-1.3 mg/mL KinA:15 mM TRIS-HCl, pH 8.0, 6 mM KCl; 4 mM 2-mercaptoethanol; 40% glycerol (-20° C.)
1 mg/mL Spo0F: 17.5 mM TRIS-HCl, pH 8.0; 0.7 mM KCl; 0.7 mM MgCl2; 0.7 mM CaCl2; 5mM 2-mercaptoethanol; 30% Glycerol (-20° C.)
5% Stacking Gel: 40% 29:1 acrylamide:bis acrylamide (1.25 mL), 0.5M TRIS-HCl, pH 6.8 (2.5 mL), 10% SDS (0.1 mL), D-H2 O (6.15 mL) 10% ammonium persulfate (100 mL) and TEMED (25 mL) SDS Running Buffer: TRIS-BASE (3.02 g), glycine (14.4 g) SDS (1 g), D-H2 O (to 1L)
The reaction mixture was prepared from 8×Salts (87 μL), 1M TRIS, pH 8 (118 μL), 50% glycerol (63 μL), Spo0F (14.1 μL) and KinA (7.0 μL). Microcentrifuge tubes were charged with the reaction mixture (18.5 μL) and a 1.0 mM solution of the test compound in 5% DMSO (18.5 μL), and incubated for 15 min on ice. 100 mM ATP solution (3.0 μl, containing 625 μCi [^32 P]ATP) was added, and the mixture left for 10 minutes at room temperature. The reaction was quenched with 5×loading dye (10 μL per tube) and the samples were loaded on a prepared 5% Stacking Gel, or stored on dry ice until ready for use. The prepared wells were filled with SDS Running Buffer, samples were loaded into the wells, and 80 volts were applied to the gel until the dye front reached the bottom of the stacking gel. The voltage was then increased to 250 volts until electrophoresis was complete. Radioactive bands in the gel corresponding to phosphorylated KinA and Spo0F were imaged and quantitated with a phosphoimager.
If either enzyme was inhibited (as evidenced by the absence of labelled protein in the developed gel), an IC50 was calculated by running the assay with a range of inhibitor concentrations from 1 to 500 μM. After electrophoresis of the reaction mixtures, percent inhibition was determined by measuring the concentration of radioactive phosphorus with a phosphoimager and calculating the values using a software program (BioRad Molecular Analyst).

## NCc1ccc2cc(OCCC(c3ccccc3)(c3ccccc3)c3ccccc3)ccc2c1 [Example 20, 6-(3,3,3-Triphenylpropoxy)-2-naphthylmethylamine]
[1]
  MIC: 4 to 8 µg/mL (≈ 9.02 to 18 µM)
[2]
  IC50: 75 µM

## O=C(O)/C=C/c1ccc(OCCC(c2ccccc2)(c2ccccc2)c2ccccc2)cc1 [Example 22, trans 4-(3,3,3-Triphenylpropoxy)cinnamic acid]
[1]
  MIC: 4 to 64 µg/mL (≈ 9.21 to 147 µM)
[2]
  IC50: 71 µM

## O=C(Cc1ccc(O)cc1)OCCC(c1ccccc1)(c1ccccc1)c1ccccc1 [Example 23, 3,3,3-Triphenylpropyl 2-(4-hydroxyphenyl)acetate]
[1]
  MIC: > 128 µg/mL
[2]
  IC50: 170 µM

## O=C(CCc1ccc(O)cc1)OCCC(c1ccccc1)(c1ccccc1)c1ccccc1 [Example 24, 3,3,3-Triphenylpropyl 3-(4-hydroxyphenyl)propionate]
[1]
  MIC: > 128 µg/mL
[2]
  IC50: 160 µM

## O=C(/C=C/c1ccc(OCCC(c2ccccc2)(c2ccccc2)c2ccccc2)cc1)NCCO [Example 25, trans N-(2-Hydroxyethyl)-4-(3,3,3-triphenylpropoxy)-cinnamide]
[1]
  MIC: > 128 µg/mL
[2]
  IC50: 150 µM

## c1ccc(C(CCOc2ccc(CCC3=NCCCO3)cc2)(c2ccccc2)c2ccccc2)cc1 [Example 26, 4,5-Dihydro-2-{2-[4-(3,3,3-triphenylpropoxy)-phenyl}ethyl}-1,3-oxazine]
[1]
  MIC: 8 to 16 µg/mL (≈ 16.8 to 33.6 µM)
[2]
  IC50: 43 µM

## c1ccc(C(CCOc2ccc(CCc3nnn[nH]3)cc2)(c2ccccc2)c2ccccc2)cc1 [Example 27, 5-{2-[4-(3,3,3-Triphenylpropoxy)phenyl]ethyl}-1H-tetrazole]
[1]
  MIC: 8 to 64 µg/mL (≈ 17.4 to 139 µM)
[2]
  IC50: 11 µM

## C[N+](C)(Cc1ccccc1)Cc1ccc(OCCC(c2ccccc2)(c2ccccc2)c2ccccc2)cc1.[Cl-] [Example 28, N-Benzyl-N,N-dimethyl-[4-(3,3,3-triphenylpropoxy)-phenyl]methyl ammonium chloride]
[1]
  MIC: 2 µg/mL
[2]
  IC50: 13 µM

## [Cl-].c1ccc(C(CCOc2ccc(C[n+]3ccccc3)cc2)(c2ccccc2)c2ccccc2)cc1 [Example 29, 1-{[4-(3,3,3-triphenylpropoxy)-phenyl]methyl}pyridinium chloride]
[1]
  MIC: 2 to 4 µg/mL
[2]
  IC50: 6 µM

## Cc1n(C)cc[n+]1Cc1ccc(OCCC(c2ccccc2)(c2ccccc2)c2ccccc2)cc1.[Cl-] [Example 30, 1,2-Dimethyl-3-{[4-(3,3,3-triphenylpropoxy)-phenyl]methyl}imidazolium chloride]
[1]
  MIC: 2 to 8 µg/mL
[2]
  IC50: 28 µM

## O=C(O)C(=Cc1ccc(OCCC(c2ccccc2)(c2ccccc2)c2ccccc2)cc1)C(=O)O [Example 31, [4-(3,3,3-Triphenylpropoxy)benzylidene]malonic acid]
[1]
  MIC: > 128 µg/mL
[2]
  IC50: 54 µM

## c1ccc(C(CCOc2ccc(Cc3nnn[nH]3)cc2)(c2ccccc2)c2ccccc2)cc1 [Example 32, 5-[4-(3,3,3-Triphenylpropoxy)phenyl]methyl-1H-tetrazole]
[1]
  MIC: 8 to 64 µg/mL (≈ 17.9 to 143 µM)
[2]
  IC50: 19 µM

## C[N+](C)(C)Cc1ccc(OCCC(c2ccccc2)(c2ccccc2)c2ccccc2)cc1.[Cl-] [Example 33, N,N,N-Trimethyl-[4-(3,3,3-triphenylpropoxy)phenyl]methylammonium chloride]
[1]
  MIC: 4 to 8 µg/mL
[2]
  IC50: 29 µM

## O=C(O)Cc1cccc(OCCC(c2ccccc2)(c2ccccc2)c2ccccc2)c1 [Example 34, 2-[3-(3,3,3-Triphenylpropoxy)phenyl]acetic acid]
[1]
  MIC: 32 µg/mL (≈ 75.7 µM)
[2]
  IC50: 38 µM

## O=C(O)CCc1cccc(OCCC(c2ccccc2)(c2ccccc2)c2ccccc2)c1 [Example 35, 3-[3-(3,3,3-Triphenylpropoxy)phenyl]propionic acid]
[1]
  MIC: 4 to 128 µg/mL (≈ 9.16 to 293 µM)
[2]
  IC50: 42 µM

## O=C(O)Cc1ccccc1OCCC(c1ccccc1)(c1ccccc1)c1ccccc1 [Example 36, 2-(3,3,3-Triphenylpropoxy)phenylacetic acid]
[1]
  MIC: 16 to 32 µg/mL (≈ 37.9 to 75.7 µM)
[2]
  IC50: 45 µM
